We go through 2 substances from patent publication US20230233701A1 (priority 2020, published 2023).

In assay [1] the test system is OVA protein and OB1 peptide. The following applies: three consecutive injections, C57BL/6J.
Assay [2] relates to 2D2 CD4 T cells. Briefly: 2D2 CD4 T-cell adoptive transfer and challenge. The following applies: amount equimolar to the administered […]-MOG35-55 adduct.

With “OVA protein: free OVA (ovalbumin) protein, equimolar amounts”, the “IgG antibody responses against OVA protein or OB1 peptide” value in assay [1] is “readily produced such antibodies”.
For “MOG35-55: amino acids 35-55 of MOG, MEVGWYRSPFSRVVHLYRNGK (SEQ ID NO: 49) (UniProt Q61885 63-83, looked up, fragment)”, the “division of 2D2 T cells” value in assay [2] is given as ≤ 5%.
